In patent publication US11299485B2, “Thiophene derivative and use thereof” (FUJIMOTO CO., LTD., priority 2018, dated 2022):

What was measured:
Assay type in all cases: cell-based
[1] = tested on: MM.1S cells; test: Human myeloma cell line MM.1S proliferation suppression test; conditions: MM1.S, 72 h, compound 10 μM, 3 days, WST-1 or WST-8, read-out: cell survival rate (% of control) MM.1S
In short: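 Cells at 2×10^5 cells/mL in RPMI1640 + 10% FCS, mixed 1:1 with compound diluted from DMSO stock (final 10 μM) versus DMSO-only control. Cultured 3 days at 37 °C, 5% CO2; proliferation read with WST-1 or WST-8.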

[2] = tested on: Pfeiffer cells; test: Human diffuse large B-cell lymphoma cell line Pfeiffer proliferation suppression test; conditions: 144 h, compound 10 μM, 3 days + re-plating with compound 3 days, WST-8, read-out: cell survival rate (% of control) Pfeiffer
In short: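 Pfeiffer cells were seeded at 1.3×10^5 cells/mL and dosed the next day with compound at 10 μM final (DMSO control), then grown 3 days at 37 °C, 5% CO2. An aliquot was then passaged into a fresh plate with compound re-added at 10 μM final for 3 more days. Proliferation was read by WST-8.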

[3] = tested on: Daudi cells; test: Human Burkitt lymphoma cell line Daudi proliferation suppression test; conditions: 72 h, compound 10 μM, 3 days, WST-8, read-out: cell survival rate (% of control) Daudi
In short: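 Daudi cells plated at 1.3×10^5 cells/mL and cultured overnight at 37° C., 5% CO2, then given test compound at final 10 μM (DMSO vehicle control). After 3 days' culture, proliferation was read by WST-8.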

SMILES	viability at 10 µM [1]	viability at 10 µM [2]	viability at 10 µM [3]
O=C1CCC(n2cc(-c3cc(Br)sc3Br)nn2)C(=O)N1 (stereo not drawn) [compound 13, 3-[4-(2,5-dibromothiophen-3-yl)-1H-1,2,3-triazol-1-yl]piperidine-2,6-dione]	79%	100%	95%
Cl.O=C1CCC(n2cc(-c3cscc3OCc3ccc(CN4CCCC4)cc3)nn2)C(=O)N1 (stereo not drawn) [compound 41, 3-(4-{4-[4-(pyrrolidin-1-ylmethyl)benzyloxy]thiophen-3-yl}-1H-1,2,3-triazol-1-yl)piperidine-2,6-dione hydrochloride]	32%	72%	24%
COc1cscc1-c1cn(C2CCC(=O)NC2=O)nn1 (stereo not drawn) [compound 19, 3-[4-(4-methoxythiophen-3-yl)-1H-1,2,3-triazol-1-yl]piperidine-2,6-dione]	24%	11%	4%
O=C1CCC(n2cc(-c3ccsc3)nn2)C(=O)N1 (stereo not drawn) [compound 2, 3-[4-(thiophen-3-yl)-1H-1,2,3-triazol-1-yl]piperidine-2,6-dione]	50%	80%	71%
Cc1cscc1-c1cn(C2CCC(=O)NC2=O)nn1 (stereo not drawn) [compound 7, 3-[4-(4-methylthiophen-3-yl)-1H-1,2,3-triazol-1-yl]piperidine-2,6-dione]	57%	101%	75%
COc1c(-c2cn(C3CCC(=O)NC3=O)nn2)csc1Cl (stereo not drawn) [compound 22, 3-[4-(5-chloro-4-methoxythiophen-3-yl)-1H-1,2,3-triazol-1-yl]piperidine-2,6-dione]	73%	97%	81%
O=C1CCC(n2cc(-c3ccc(Br)s3)nn2)C(=O)N1 (stereo not drawn) [compound 12, 3-[4-(5-bromothiophen-2-yl)-1H-1,2,3-triazol-1-yl]piperidine-2,6-dione]	74%	94%	87%
O=C1CCC(n2cc(-c3cscc3OCC3CCCC3)nn2)C(=O)N1 (stereo not drawn) [compound 29, 3-{4-[4-(cyclopentylmethoxy)thiophen-3-yl]-1H-1,2,3-triazol-1-yl}piperidine-2,6-dione]	89%	110%	79%
CC(C)Oc1cscc1-c1cn(C2CCC(=O)NC2=O)nn1 (stereo not drawn) [compound 26, 3-[4-(4-isopropoxythiophen-3-yl)-1H-1,2,3-triazol-1-yl]piperidine-2,6-dione]	40%	82%	51%
O=C1CCC(n2cc(-c3cscc3OCc3cccnc3)nn2)C(=O)N1 (stereo not drawn) [compound 35, 3-{4-[4-(pyridin-3-ylmethoxy)thiophen-3-yl]-1H-1,2,3-triazol-1-yl}piperidine-2,6-dione]	55%	104%	67%
O=C1CCC(n2nnc(-c3ccsc3)c2Br)C(=O)N1 (stereo not drawn) [compound 48, 3-[5-bromo-4-(thiophen-3-yl)-1H-1,2,3-triazol-1-yl]piperidine-2,6-dione]	85%	98%	80%
O=C1CCC(n2cc(-c3cscc3OC3CCCC3)nn2)C(=O)N1 (stereo not drawn) [compound 27, 3-{4-[4-(cyclopentyloxy)thiophen-3-yl]-1H-1,2,3-triazol-1-yl}piperidine-2,6-dione]	82%	98%	70%
